8 compounds from PubChem BioAssay (NCI) can be followed below.

SMILES strings stand for the structures.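 Grown in 96-well plates, cells were treated for 48 hours with each compound at five concentrations. Insufficient inhibition: endpoint recorded as highest concentration tested. GI50: concentration for 50% inhibition of growth. TGI denotes the concentration required for complete inhibition of growth.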

Among the test systems are SK-MEL-2 melanoma; HCC-2998 colon; CCRF-CEM leukemia; NCI-H522 lung; SK-MEL-28 melanoma; SF-268 CNS; A498 renal; MALME-3M melanoma; HOP-62 NSCLC; COLO 205 colon; K-562 leukemia; EKVX NSCLC.
Experiment in all cases: inhibition of tumour cell growth, NCI panel, 48 h

Consider `CC(N)Cc1cccc(C(F)(F)F)c1` (configuration not stated), for which the TGI with SK-MEL-2 melanoma, in the test on HCC-2998 colon, in the test on CCRF-CEM leukemia, in the test with NCI-H522 lung, in the test with SK-MEL-28 melanoma and with SF-268 CNS was over 100 µM throughout. In addition, the TGI in the test on A498 renal, in the test on MALME-3M melanoma, in the test on HOP-62 NSCLC, in the test with COLO 205 colon, with K-562 leukemia and in the test on EKVX NSCLC was over 100 µM in each case.

As for `CN(C)CCOc1cc2c(c3ccccc13)-c1ccccc1C2=O`, the TGI in the test with SK-MEL-2 melanoma turned out to be 3.44 µM; with HCC-2998 colon, 4.68 µM; with CCRF-CEM leukemia it was 10.8 µM; in the test with NCI-H522 lung it was 3.08 µM; with SK-MEL-28 melanoma, 3.27 µM; in the test with SF-268 CNS, 3.24 µM. Further, the TGI in the test on A498 renal came to 19.3 µM; with MALME-3M melanoma, 5.15 µM; in the test with HOP-62 NSCLC it was 3.95 µM; in the test with COLO 205 colon, 3.68 µM; with K-562 leukemia, 4.7 µM; in the test with EKVX NSCLC it was 18.5 µM.

In the case of `CO/C(=N/N1CC1C(F)(F)F)c1ccncc1` (configuration not stated), the TGI in the test with SK-MEL-2 melanoma, in the test with CCRF-CEM leukemia, with NCI-H522 lung, in the test with SK-MEL-28 melanoma, in the test with A498 renal and in the test on MALME-3M melanoma was over 100 µM in each case. In addition, the TGI with HOP-62 NSCLC, with COLO 205 colon and in the test with K-562 leukemia was over 100 µM throughout.

`O=C(CCl)N1CCCCC1C1(c2cc3ccccc3[nH]2)OCCO1` (configuration not stated): the TGI in the test with SK-MEL-2 melanoma stood at 20.2 µM; in the test with HCC-2998 colon it was 26.9 µM; with NCI-H522 lung it was 0.448 µM; with SK-MEL-28 melanoma, 35.6 µM; with SF-268 CNS, 15.4 µM; with A498 renal it was 11.8 µM. Moreover, the TGI in the test on MALME-3M melanoma came to 14.5 µM; in the test with HOP-62 NSCLC, 20.6 µM; in the test on COLO 205 colon it was 12.1 µM; in the test on K-562 leukemia it was 15.9 µM; in the test with EKVX NSCLC, 5.74 µM.

Consider `O=C(O)C(Cc1cccs1)NC(=O)C(F)(F)F` (configuration not stated), for which the TGI in the test with SK-MEL-2 melanoma, in the test on HCC-2998 colon, with CCRF-CEM leukemia, in the test with NCI-H522 lung, in the test on SK-MEL-28 melanoma and in the test with SF-268 CNS was over 100 µM throughout. Further, the TGI in the test with A498 renal, in the test on MALME-3M melanoma, with HOP-62 NSCLC, with COLO 205 colon, with K-562 leukemia and with EKVX NSCLC was over 100 µM each time.

Turning to `CCCCOC(=O)CN1C(=O)c2ccccc2C1=O`, the TGI in the test on SK-MEL-2 melanoma, in the test on HCC-2998 colon, with NCI-H522 lung, with SK-MEL-28 melanoma, in the test with SF-268 CNS and in the test on MALME-3M melanoma was over 100 µM each time. Moreover, the TGI in the test on HOP-62 NSCLC, with COLO 205 colon and in the test on EKVX NSCLC was over 100 µM throughout.

Take `C#CCCCC(=C)C[C@H](OCc1ccccc1)[C@H]1OC(=O)[C@@H]1C`: the TGI with SK-MEL-2 melanoma, in the test on HCC-2998 colon, in the test on CCRF-CEM leukemia, in the test on SK-MEL-28 melanoma, in the test with SF-268 CNS and in the test with A498 renal was over 100 µM each time. Further, the TGI in the test on HOP-62 NSCLC and with EKVX NSCLC was over 100 µM each time.

With `COC(=O)c1cccc(NC(=O)Nc2ccc3oc(=O)c4ccccc4c3c2)c1`, the GI50 with CCRF-CEM leukemia was 12.1 µM; in the test on NCI-H522 lung, 4.91 µM; in the test on SK-MEL-28 melanoma, over 100 µM; with SF-268 CNS, 3.5 µM; with COLO 205 colon it was over 100 µM; with K-562 leukemia, over 100 µM. Also, the GI50 with EKVX NSCLC is over 100 µM. Moreover, the TGI in the test on CCRF-CEM leukemia was 26.2 µM; in the test on NCI-H522 lung, over 100 µM; with SK-MEL-28 melanoma, over 100 µM; in the test with SF-268 CNS it was over 100 µM; in the test on COLO 205 colon it was over 100 µM; in the test on K-562 leukemia it was over 100 µM. In the test on EKVX NSCLC, this compound came in with a TGI of over 100 µM.
